Experimental findings from patent US12384775B2, “Pyrimid-2-yl-pyrazole compounds as IRAK inhibitors” (Rigel Pharmaceuticals, Inc., priority 2022, dated 2025) are described below.

Test [1] concerns TLR4-induced IL-23 production in human primary dendritic cells (DC). The experiment in a line: IL23-p19 ELISA, dendritic cells (DC), LPS. It is filed as cell-based. To be noted: Dendritic cell; dendritic cells from human PBMC, IFNγ primed, LPS 1 μg/ml, 18 h; read-out: IL23-p19 ELISA, Dendritic, LPS, 10 pt EC50. How it is done:
Human PBMC cells (400 million) obtained from the vendor were transferred into a T-175 flask containing 15 ml RPMI media (10% FBS) and incubate for 2 hours at 37° C. After 2 hours, the media including floating cells was aspirated out carefully and 12 ml of fresh RPMI media (10% FBS) containing GMCSF (100 ng/ml) and IL4 (20 ng/ml) was added, and the flask was kept in a 37° C. incubator for 7 days.
After 3 days, fresh GMCSF (100 ng/ml) and IL4 (20 ng/ml) were added to the flask and the incubation continued. After 7 days, the fully differentiated cells were harvested by spinning down (1200 rpm/5 min) and aspirating the media. […]
155 μl of the supernatant was harvested from each well carefully (without the tip touching the bottom of the well) and to the remaining 50 μl/well of the cell culture plate was added 50 μl of Cell Titer Glo reagent. The mixture was incubated for 1-2 minutes on a shaker and the plate was read for luminescence intensity to determine the compound cytotoxicity. […]
After 45 minutes, the plates were washed with TBST 4× and 100 ul/well Super Signal ELISA Pico Chemiluminescent Substrate from Pierce (3.5 ml A+3.5 ml B+3.5 ml MQ water) was added. The plates were shaken for 1-2 minutes then read on a plate reader. […]
In general terms: In an ELISA, binding on a coated surface is turned into a signal by an enzyme label.

A further test concerns the target IRAK1 (Homo sapiens, UniProt P51617). The experiment in a line: IRAK1 ADP-Glo kinase assay. It counts as biochemical. To be noted: read-out: IRAK1 ADP-Glo Kinase, 8 pt EC50. On the technique in general: ADP-Glo first removes unused ATP, then detects ADP through luciferase.
The subject of test [2] is TLR4-induced TNF-α production by human THP-1 cells. Put plainly: TLR4-induced TNF-α in THP-1 cells. It counts as cell-based. How it is done: THP-1 cells (100K in 100 μL/well) were primed with 25 ng/mL IFN-γ for 18 hours at 37° C., 5% CO2. Compound was serially diluted in DMSO from 2.5 mM in 4-fold dilutions, and then diluted 1:125 in RPMI 1640 complete media with 10% FBS. 100 μL/well 2× compound was mixed with the 100 μL/well IFN-7 primed THP-1 in 96 well flat-bottom white tissue culture plates. The cells were pre-incubated with compound for 1 hour at 37° C., 5% CO2 and before addition of 10 μL/well 21×LPS to give a final concentration of […] for LPS. The cells were stimulated with LPS for 18 hours at 37° C., 5% CO2. After centrifugation, 100 μL/well supernatant was extracted by using a multichannel pipette. IL-23p19 or TNF-α protein in the supernatant were measured by sandwich ELISA. The remaining IFN-7 primed THP-1 cell pellets were used to perform cell viability assays to determine compound cell toxicity. The plates were read with a luminometer, and the chemiluminescence values were entered into Athena (Rigel) for curve fitting, EC50 calculation, and database storage.

For test [3], the system named is TLR2-induced TNF-α production in human primary dendritic cells (DC). The experiment in a line: TLR2-induced TNF-α in human primary dendritic cells. It is filed as cell-based.
Test [4] concerns TLR4-dependent cytokine production in mouse macrophages. Put plainly: TLR4-dependent cytokine production in mouse macrophages. It is filed as cell-based.
Test [5] concerns IL-10-induced production of the cytokine IL-6 in primary human endothelial cells. The experiment in a line: IL-6 production in primary human endothelial cells. It is filed as cell-based.

Each structure is given as a SMILES string.

Sequence of IRAK1 (P51617 whole entry): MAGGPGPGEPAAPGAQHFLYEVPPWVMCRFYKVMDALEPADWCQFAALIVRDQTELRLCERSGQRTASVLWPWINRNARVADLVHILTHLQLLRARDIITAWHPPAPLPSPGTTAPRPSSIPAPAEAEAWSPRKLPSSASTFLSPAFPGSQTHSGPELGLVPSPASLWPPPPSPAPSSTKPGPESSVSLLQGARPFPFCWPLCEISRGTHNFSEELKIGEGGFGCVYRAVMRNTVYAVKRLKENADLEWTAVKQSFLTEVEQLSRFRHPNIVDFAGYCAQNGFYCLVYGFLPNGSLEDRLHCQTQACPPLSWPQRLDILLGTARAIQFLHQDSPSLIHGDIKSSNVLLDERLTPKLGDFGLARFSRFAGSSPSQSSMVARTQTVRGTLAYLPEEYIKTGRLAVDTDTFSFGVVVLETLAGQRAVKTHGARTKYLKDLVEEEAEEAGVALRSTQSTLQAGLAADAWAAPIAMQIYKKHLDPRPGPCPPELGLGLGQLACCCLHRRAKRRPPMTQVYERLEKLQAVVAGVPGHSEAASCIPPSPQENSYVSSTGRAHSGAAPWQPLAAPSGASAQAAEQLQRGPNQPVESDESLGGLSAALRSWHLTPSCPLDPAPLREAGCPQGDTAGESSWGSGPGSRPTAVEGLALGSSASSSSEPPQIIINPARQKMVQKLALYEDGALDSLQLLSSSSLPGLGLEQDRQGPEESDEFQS

Broadly, the EC50 is the midpoint of the concentration-response curve. For the molecule `CCO[C@H]1CC[C@H](n2cc(NC(=O)c3csc(-c4cn[nH]c4)n3)c(-c3ncccn3)n2)CC1` [Compound I-1, N-(1-((1r,4r)-4-ethoxycyclohexyl)-3-(pyrimidin-2-yl)-1H-pyrazol-4-yl)-2-(1H-pyrazol-4-yl)thiazole-4-carboxamide], the EC50 in test [1] is 180 nM; on IRAK1, 8.1 nM. For the same molecule, the “TLR4-induced TNF-α production by human THP-1 cells” value in test [2] is “inhibits”. The “TLR2-induced TNF-α production in human primary dendritic cells (DC)” value in test [3] is “blocks”. For the same molecule, the “TLR4-dependent cytokine production in mouse macrophages” value in test [4] is reported as “potent inhibitor”. Further, in test [5], the “IL-10-induced production of the cytokine IL-6 in primary human endothelial cells” value is reported as “potently inhibits”.
